Results published in US6825230B2, “Spiro and dispiro 1,2,4-trixolane antimalarials” (Medicines for Malaria Venture MMV, priority 2002, dated 2004).
In brackets after ≈: the same amount, converted by molar mass.

Experiments:
[1] = system: Schistosoma mansoni 21-day-old schistosomules; test: Effect on 21-day-old schistosomules in infected mice; assay type: in vivo; settings: for % reduction of schistosomule growth at day 21 after per os application of 200 mg/kg, FWR (%): female worm reduction rate
Experimental: Mice were infected with 100 Schistosoma mansoni cercariae on day 21 post-treatment. Each group was treated per os with trioxolanes at a single dose of 200 mg/kg. […] All groups were killed 4 weeks after treatment and the liver and intestine were removed and separated. The liver and intestine were compressed and alive male and female worms could be seen and counted. The effect of the compounds was evaluated by mean total and female worm burden.

[2] = system: Schistosoma mansoni adult worms (49-day-old); test: Effect on adult schistosomes (49-day-old) in infected mice; assay type: in vivo; settings: single 400 mg/kg per os; for % reduction of adult worms growth at day 49 after per os application of 400 mg/kg, TWR (%): 49-day-old adults, total worm reduction rate; for Adult worms day 49, per os 400 mg/kg, DEAD WORM (%): percentage of dead worm in the liver
Experimental: Mice were infected with 100 Schistosoma mansoni cercariae on day 49 post-treatment. Each group was treated per os with OZ compounds at single doses of 200, 400, and 600 mg/kg. Untreated mice served as the control. All groups were killed 4 weeks after treatment and the liver and intestine were removed and separated. The liver and intestine were compressed and alive male and female worms could be seen and counted.

[3] = system: ANKA strain of P. berghei; test: Single dose STI in vivo screen in infected mice; design: species or system Plasmodium berghei
[4] = system: chloroquine-resistant K1 strain of P. falciparum; test: In vitro antimalarial semiautomated microdilution assay ([3H]-hypoxanthine incorporation), K1 strain; assay type: cell-based, Plasmodium falciparum; settings: Plasmodium falciparum, K1, 72 h, read-out: IC50 (ng/ml) K1, chloroquine-resistant K1 strain, 72 h incubation
Procedure, shortened: (§1)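 Semiautomated microdilution against intraerythrocytic P. falciparum from asynchronous stock cultures, with growth tracked by [3H]-hypoxanthine incorporation. IC50 values were estimated by Logit regression analysis.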

[5] = system: chloroquine-sensitive NF54 strain of P. falciparum; test: In vitro antimalarial semiautomated microdilution assay ([3H]-hypoxanthine incorporation), NF54 strain; assay type: cell-based, Plasmodium falciparum; settings: Plasmodium falciparum, NF54, 72 h, read-out: IC50 (ng/ml) NF54, chloroquine-sensitive NF54 strain, 72 h incubation
Procedure, shortened: as §1

[6] = single 200 mg/kg per os, 21-day-old schistosomules
[7] = single 200 mg/kg per os, 21-day-old schistosomules, total worm reduction rate

SMILES	% reduction of schistosomule growth at day 21 after per os application of 200 mg/kg, FWR (%) [1, 6]	% reduction of schistosomule growth at day 21 after per os application of 200 mg/kg, TWR (%) [1, 7]	% reduction of adult worms growth at day 49 after per os application of 400 mg/kg, TWR (%) [2]	Adult worms day 49, per os 400 mg/kg, DEAD WORM (%) [2]	also measured
O=C(O)C1CCC2(CC1)OOC1(O2)C2CC3CC(C2)CC1C3 (stereo not drawn) [OZ71]	85%	91%	0%		Adult worms day 49, per os 400 mg/kg, DEAD WORM (%) ([2]; listed as OZ 71): 16%
O=C1CCC2(CCO1)OOC1(O2)C2CC3CC(C2)CC1C3 (stereo not drawn) [OZ17]	7%		0%	5%	% reduction of schistosomule growth at day 21 after per os application of 200 mg/kg, TWR (%) ([1]; po, 200 mg/kg, 504 h): 23%
OC1CCC2(CC1)OOC1(O2)C2CC3CC(C2)CC1C3 (stereo not drawn) [OZ32]	70%	73%	27%	28%	
CC(C)(O)[C@H]1CC[C@]2(CC1)OOC1(O2)C2CC3CC(C2)CC1C3 (stereo partly drawn) [OZ108]	28%	30%	28%	0%	Survival (days) 10 mg/kg po ([3]; single 10 mg/kg po in 3% ethanol and 7% Tween 80, untreated 6-7 days): 5.0 days; Activity (%) 10 mg/kg po ([3]; single 10 mg/kg po in 3% ethanol and 7% Tween 80 on day 1 post-infection, percent reduction in parasitemia on day 3): 0/0/0%; Survival (days) 10 mg/kg SSV po ([3]; single 10 mg/kg po in SSV, untreated 6-7 days): 5.0 days; Activity (%) 10 mg/kg SSV po ([3]; single 10 mg/kg po in standard suspending vehicle (SSV) on day 1 post-infection, percent reduction in parasitemia on day 3): 0/0/0%; Survival (days) 10 mg/kg sc ([3]; single 10 mg/kg sc in 3% ethanol and 7% Tween 80, untreated 6-7 days): 5.7 days; Activity (%) 10 mg/kg sc ([3]; single 10 mg/kg sc in 3% ethanol and 7% Tween 80 on day 1 post-infection, percent reduction in parasitemia on day 3): 0/0/0%; IC50 [4]: 68 ng/mL (≈ 0.211 µM); IC50 [5]: 29 ng/mL (≈ 0.0899 µM)
O=C1C2C3CC4C5C3C1C5C1(OOC3(O1)C1CC5CC(C1)CC3C5)C42 (stereo not drawn) [OZ14]	0%	7%	0/0%	0/0%	
O=C(c1ccccc1)N1CCC2(CC1)OOC1(O2)C2CC3CC(C2)CC1C3 (stereo not drawn) [OZ24]	61%	65%	21%	0%	
C1CCC2(CC1)OOC1(O2)C2CC3CC(C2)CC1C3 (stereo not drawn) [OZ03]	74%		29%	8%	% reduction of schistosomule growth at day 21 after per os application of 200 mg/kg, TWR (%) ([1]; po, 200 mg/kg, 504 h): 74%
C1CCCCCC2(CCCCC1)OOC1(O2)C2CC3CC(C2)CC1C3 (stereo not drawn) [OZ20]	0%	0%	0/0%	0/0%	
O=[N+]([O-])c1ccc(NN=C2CCC3(CC2)OOC2(O3)C3CC4CC(C3)CC2C4)c([N+](=O)[O-])c1 (stereo not drawn) [OZ29]	20%	28%	0/0%	0/0%	
CCOC(=O)N1CCC2(CC1)OOC1(O2)C2CC3CC(C2)CC1C3 (stereo not drawn) [OZ23]	84%	90%	0%	4%	
